Data published in patent US5654179A, “Nucleic acid preparation methods” (HRI Research, Inc., priority 1994, dated 1997).
pIC50: −log10 of the molar value. Read-outs that look alike come from different tables or passages of the source.

Assays:
[1] = Transferrin binding of heme
Description: This is lower than that expected from the molar ratio for transferrin to iron binding of 0.5. Second, there is the question of the central metal ion: the central metal iron was found not to be required for the transferrin-mediated phenomenon of the present invention.

[2] = in the presence of an anion (such as HCO3^-); cited from earlier work
Taq polymerase [3] = type: biochemical
Experimental: (§1) Generally, PCR was carried out using 175-200 μM dNTPS (deoxyribonucleoside 5'-triphosphates) and 0.5 to 1.0 μM primers. Five units/100 μl of Taq polymerase were used. PCR reactions were overlaid with 30-100 μl light mineral oil. A typical PCR cycle for HIV amplification using a Perkin-Elmer Cetus DNA Thermal Cycler (Part No. N8010150) was: denaturation at 95° C. for 30 seconds; annealing at 55° C. for 30 seconds; and extension at 72° C. for 1 minute. PCR cycles were normally carried out in this manner for 35 cycles followed by 7 minutes at 72° C.
In some instances below, amplification of human histocompatibility (HLA) Class II genes was performed using primer pair GH26 (SEQ ID NO:2) and GH27 (SEQ ID NO:3) and human placental DNA to produce a 242-mer product (SEQ ID NO: 4). These primers and other primers are described in PCR Protocols: A Guide To Methods and Applications, Innis, M. A. et al. eds., pp. 261-271 (1990)).
Whole blood was prepared according to Mode III (see FIG. 1). Whole blood samples (100 μl) were lysed with protease K (0.5 mg/ml, 55° C. for 1 hour). The enzyme was inactivated by heating (95°-100°C., 10 minutes). Four sets of reactions were then set up involving the addition of interfering reagent to the protease lysate: 1) transferrin with 10 mM sodium bicarbonate; 2) transferrin with 20 mM sodium bicarbonate; 3) serum albumin with 10 mM sodium bicarbonate; and 4) serum albumin with no cofactor. These reaction were performed at room temperature for thirty minutes using a concentration range for transferrin and serum albumin (10, 25, 50, 75, 100, 150, 200 and 250 μg per 20 μl PCR rxn). PCR was then set up using the primer pair GH26/GH27 to produce a 242-mer product (see above). Two standard control reactions were run in separate tubes: i) a no nucleic acid target control; and 2) a positive control (human placental DNA). Four additional control lanes were run: 1) no inhibitor treatment (two lanes); 2) 10 mM sodium bicarbonate only (one lane); and 3) 50 μg transferrin only (one lane); and 4) transferrin with 10 mM sodium bicarbonate (two lanes). PCR was carried out for 35 cycles. The PCR products were thereafter electrophoresed (agarose) and visualized with ethidium bromide staining. The two above-named control reactions were electrophoresed in lanes 9 and 10 of FIG. 16A, respectively, as well as lanes 17 and 18 of FIG. 16B, respectively. In FIG. 16C, the positive control is in lane 1 and the negative control is in lane 2.
Whole blood was prepared according to Mode III (see FIG. 1). Whole blood samples (20 μl) were lysed with protease K (0.5 mg/ml, 55° C. for 1 hour). The enzyme was inactivated by heating (95°-100° C., 10 minutes). Reactions were then set up involving the addition of bovine transferrin or serum albumin with various cofactors, including bicarbonate ion, azide ion, thiocyanate ion, cyanate ion, oxalate ion, malonate ion, glycinate ion, and thioglycolate ion. These reaction were performed at room temperature for thirty minutes. PCR was then set up using the using primer pair GH26/GH27 to produce a 242-mer product (see above). PCR was carried out for 35 cycles. The PCR products were thereafter electrophoresed (agarose) and visualized with ethidium bromide staining.

Taq polymerase [4] = assay: HIV PCR after inhibitor treatment of whole blood lysate; type: biochemical; conditions: Mode III, transferrin with sodium bicarbonate
Experimental: The enzyme was inactivated by heating (95°-100° C., 10 minutes).

Taq polymerase [5] = assay: PCR from boiled whole blood with or without transferrin; type: biochemical; conditions: with transferrin; without transferrin inhibited above 1 μl
Experimental: Experiment 1. Whole blood (200 μl) was boiled for 10 minutes then briefly centrifuged to precipitate the solid coagulated mass which formed. The supernatant layer was then used directly for PCR amplification (1, 2, 3, 4, or 5 μl), either with or without transferrin. […] An aliquot of 5 μl whole blood processed by Mode III gave a very intense signal, indicating the advantage of the method over the boiling method, which provided no signal at all with a 5 μl aliquot.

Taq polymerase [6] = assay: PCR inhibition, SK38/39 system, 115-mer product on ethidium bromide gel or autoradiograph; type: biochemical
Experimental: as §1
In other cases, amplification of HIV sequences was performed using primer pair SK-38 (SEQ ID NO:5) and SK-39 (SEQ ID NO:6) and 115-mer (SEQ ID NO:7) as target to produce a 115-mer product.
Where agarose gel electrophoresis was used, the PCR products were fractionated by electrophoresis through a 3% Nusieve/1% agarose gel in TBE buffer. Electrophoresis was typically carried out in a constant voltage of 8-10 V/cm. Following agarose gel electrophoresis, individual bands were, in most cases, visualized by ethidium bromide staining. This involved staining the agarose gel with 1 μg/ml ethidium bromide in TBE for 30 minutes followed by destaining the agarose gel with TBE for 30 minutes.
The chemical reaction was performed as follows. Two aliquots (30 mg/aliquot) of sodium borohydride (NaBH4) were added at ten minute intervals to 1 ml of 200 μM hematin (Sigma) in 1M Tris (pH 8.0) under argon in the dark. The pH was adjusted to 6.0 between additions. At the end of the reaction (20 minutes) the pH was adjusted to 1.0 and then neutralized to pH 7.0. Six aliquots (5 μl) of the product of the reaction corresponding to different amounts of reacted hematin (37.5 μM, 7.5 μM, 1.5 μM, 0.3 μM, 0.06 μM, 0.012 μM) were added to standard (20 μl) PCR reactions in different tubes using the SK38/39 system (see above). Three standard control reactions were run in separate tubes: i) a no nucleic acid target control; ii) a no primer control; and iii) a positive control (no hematin). In addition, unreacted hematin was added to four different tubes in different amounts (50 μM, 5 μM, 0.5 μM, and 0.05 μM). PCR was carried out for 30 cycles. The PCR products were thereafter electrophoresed (agarose) and visualized with ethidium bromide staining (FIG. 2A, lanes 1-13). The three above-named control reactions were electrophoresed in lanes 1, 2 and 3, respectively. […] The unreacted hematin tubes (lanes 4-7) show no product until hematin is present at a very low concentration (0.05 μM, lane 7), at which point product is evident. […] Indeed, product is evident where 1.5 μM reacted hematin or less was present. […] A score (i.e., % maximum intensity of a positive control) was given to each band. An OD unit of 1.0 corresponds to 100% of maximum intensity. After examination of a plot of the estimated OD units to the concentration of hematin (expressed in the log scale) in these PCR reactions, it is clear that approximately a thirty-fold concentration difference was achieved (reacted to unreacted).
The photochemical reaction was performed as follows. Stock biliverdin (Sigma, 5 mM) was diluted in solution (50 mM Tris pH 7.8) to a final concentration of 200 μM. Two aliquots (300 μl) were then made. One aliquot was left unreacted. The other aliquot was exposed to ultraviolet radiation from an HRI-100 for 16 hours using the industry standard, F8T5BL hot cathode dual bipin lamps. Thereafter, both the unirradiated and irradiated materials were added (5 μl) to standard (20 μl) PCR reactions in different tubes using the SK38/39 system (see above) and 10^9 copies of 115-mer target. Three standard control reactions were run in separate tubes: i) a no nucleic acid target control; ii) a positive control (no biliverdin); and iii) a no Taq control. PCR was carried out for thirty (30) cycles. The PCR products were thereafter electrophoresed (agarose) and visualized with ethidium bromide staining (FIG. 3A, lanes 1-5). […]

T4 DNA ligase = conditions: dilution, dialysis, or sucrose gradient centrifugation of cell-free extracts; cited from earlier work
Taq polymerase [7] = conditions: cited from earlier work
[8] = test system: DNA ligase from mouse erythroleukemia (MEL) cells; conditions: dilution, dialysis, or sucrose gradient centrifugation of cell-free extracts; cited from earlier work
DNA ligase = conditions: cited from earlier work
[9] = test system: NAD-dependent DNA ligase from E. coli; conditions: cited from earlier work
[10] = test system: reverse transcriptase purified from arian myeloblastosis virus; conditions: cited from earlier work
[11] = test system: virion-associated reverse transcriptase (RTase) of murine leukemia virus (MuLV); conditions: cited from earlier work
[12] = test system: DNA-cytoplasmic DNA polymerase complex; conditions: cited from earlier work

In the case of “transferrin: blood serum component, an iron transport protein”, the “molar ratio of transferrin to heme at which transferrin is most effective in binding heme” value [1] is listed as less than 0.27, the “capacity to take up iron atoms” value [2] is listed as 2 iron atoms per molecule and the PCR product (Taq polymerase [3]; 10 μg per 20 μl PCR rxn, with cofactor) is listed as “No product is visible”. For the same substance, the PCR product (Taq polymerase [3]; 25 μg per 20 μl PCR rxn, with cofactor) was “faint product band”, the PCR product (Taq polymerase [3]; 50 μg transferrin alone) was “No product is visible” and the PCR product (Taq polymerase [3]; 50 μg transferrin with 10 mM cofactor) was “Strong product bands”. For the same substance, the PCR product (Taq polymerase [3]; higher concentration of the cofactor (20 mM sodium bicarbonate), lanes 11-18) was “not as apparent”, the PCR product (Taq polymerase [3]; higher concentrations (50 to 250 μg, lanes 3-8), with cofactor) was “Strong product bands” and the amplification specificity (Taq polymerase [4]) was “improves the specificity of the reaction”. For the same substance, the “aliquot of boiled whole blood supernatant up to which signal was provided” value (Taq polymerase [5]) was no more than 3 µL and the “PCR product in presence of protoporphyrin” value (Taq polymerase [6]) was “product is visible”.
In the case of hemin, the “reversibility of inhibition of T4 DNA ligase” value (T4 DNA ligase) is listed as “not reversible”, the “inhibition of PCR / Taq polymerase” value (Taq polymerase [7]) is listed as “inhibit” and the “reversibility of inhibition of DNA ligase” value [8] is listed as “not reversible”. For the same substance, the “concentration that does not affect DNA ligase activity or DNA substrate integrity” value (DNA ligase) was no more than 4 µM, the pIC50 (DNA ligase; pre-incubation, depending on the source of the DNA ligase, read-out: half-maximal inhibition of DNA ligase) was 4.00 to 4.60 and the “concentration up to which E. coli DNA ligase was not inhibited” value [9] was “up to 150 μM”. For the same substance, the “inhibition of reverse transcriptase from myeloblastosis virus” value [10] was “does not inhibit”, the “reversibility of inhibition of MuLV RTase” value [11] was “reversible inhibitor” and the “complete inhibition of the formation of DNA-enzyme complex” value [12] was no less than 12 µM. For the same substance, the “mode of inhibition of DNA synthesis” value [12] was “competitive with respect to template and noncompetitive with respect to substrate”.
